Laboratory results reported in patent publication US20080274208A1, “Water treatment containing DBNPA for use in sanitizing recreational water” (priority 2007, published 2008).

What was measured:
[1] = system: eight species of bacteria and four species of fungi typically found in swimming pool water; test: Model swimming pool recirculating sand filter system: water clarity (turbidity) under daily microbial challenge; assay type: cell-based; settings: Table 1; synthetic pool water 80-90° F, daily inoculation and bather load; DBNPA 2 ppm daily; H2O2 27.5 ppm start, 7 ppm weekly; potassium monopersulfate 12 ppm initial and weekly; PHMB 6 ppm; 88 day test
Protocol: The purpose of this experiment is to evaluate the robustness or the ability of single or combinations of biocides (plus additionally any other permutations of oxidizers and/or adjuvants) to prevent inoculated microorganisms from establishing colonies in the water and sand filter media, thus preventing bio-fouling of the system.
800 ml of synthetic swimming pool water (water containing calcium chloride dihydrate and sodium hydrogen carbonate solution at neutral pH) was pumped through a body of swimming pool filter sand by means of a peristaltic pump. The water temperature of each system was maintained in the range of 80-90° F. The biocide 2,2-dibromo-3-nitrilopropionamide (DBNPA) was added daily at a concentration of 2 ppm. When required, oxidizer hydrogen peroxide was added at a concentration of 27.5 ppm at the start of experiment, and 7 ppm weekly thereafter, and the loss of hydrogen peroxide in each system is monitored by calorimetric assay. […]
Model water turbidity was measured on a daily basis) using a Hach 2100P turbidimeter to measure water sample nephelometric turbidity units (NTUs). […]
The performance of the candidate treatment regimens was determined by the number of days the water clarity was maintained below 1.0 NTU (Nephelometric Turbidity Units). […]

[2] = system: eight species of bacteria typically found in swimming pool water; test: Model swimming pool system: viable bacteria by agar plate counts (CLED agar); assay type: cell-based, Alcaligenes, Chryseobacterium and Sphingomonas; settings: Table 1; upon exceeding turbidity threshold (or at test end); DBNPA 2 ppm daily with/without oxidizer; PHMB 6 ppm
Protocol: (§1) The synthetic swimming pool water samples dosed with combinations of DBNPA, hydrogen peroxide, potassium monopersulfate and/or DDAC were compared to the performance of the commercially available Baquacil® swimming pool chemical treatment system (available commercially from Arch Chemicals, Inc., Norwalk, Conn.). […] PHMB), by addition of daily or weekly doses of the biocide. Hydrogen peroxide is added monthly at a concentration of 27.5 ppm. The samples were challenged on a daily basis with eight species of bacteria and four species of fungi typically found in swimming pool water. These microorganisms include species of the fungi Paecilomyces and Trichoderma, and species of the bacteria Alcaligenes, Chryseobacterium and Sphingomonas. Each inoculation represents a total addition of 0.8×10^6 microorganisms per model apparatus. In addition, 5 ml of synthetic bather load is added to the system on a daily basis, as a nutrient source for the microorganisms present in the system. The bather load consists of carbon, nitrogen and macro/micro nutrient sources such as urea, albumin, creatinine, lactic acid, uric acid, glucuronic acid, sodium chloride, sodium sulfate, ammonium chloride, sodium bicarbonate, potassium phosphate potassium sulfate. The total number of viable bacteria and fungi present in each sample was determined weekly by conducting agar plate counts. […]

[3] = system: four species of fungi typically found in swimming pool water; test: Model swimming pool system: viable fungi by agar plate counts (Sabaroud-Dextrose agar); assay type: cell-based, Paecilomyces and Trichoderma; settings: Table 1; upon exceeding turbidity threshold (or at test end); DBNPA 2 ppm daily with/without oxidizer; PHMB 6 ppm
Protocol: as §1

## N#CC(Br)(Br)C(N)=O [DBNPA, 2,2-dibromo-3-nitrilopropionamide]
[1]
  Number of Days of Clarity below 1.0 NTU: 59 days
[2]
  Bacterial Counts at Clarity of 1.0 NTU or above: 1.39 × 10^5 CFU/ml
[3]
  Fungal Counts at Clarity of 1.0 NTU or above: 5 × 10^0 CFU/ml
